# Assay results as given in patent US7601746B2 (Shionogi & Co., Ltd., priority 2003, dated 2009).
# pEC50: −log10 of the molar value.
# Target: T1, human TPO receptor (hTPOR) (Homo sapiens, UniProt P40238)
# T1 construct: expressed in transfected cells; host or cells: BaF-B03 (murine IL-3 dependent cell line)
# T1 sequence (P40238 26-635): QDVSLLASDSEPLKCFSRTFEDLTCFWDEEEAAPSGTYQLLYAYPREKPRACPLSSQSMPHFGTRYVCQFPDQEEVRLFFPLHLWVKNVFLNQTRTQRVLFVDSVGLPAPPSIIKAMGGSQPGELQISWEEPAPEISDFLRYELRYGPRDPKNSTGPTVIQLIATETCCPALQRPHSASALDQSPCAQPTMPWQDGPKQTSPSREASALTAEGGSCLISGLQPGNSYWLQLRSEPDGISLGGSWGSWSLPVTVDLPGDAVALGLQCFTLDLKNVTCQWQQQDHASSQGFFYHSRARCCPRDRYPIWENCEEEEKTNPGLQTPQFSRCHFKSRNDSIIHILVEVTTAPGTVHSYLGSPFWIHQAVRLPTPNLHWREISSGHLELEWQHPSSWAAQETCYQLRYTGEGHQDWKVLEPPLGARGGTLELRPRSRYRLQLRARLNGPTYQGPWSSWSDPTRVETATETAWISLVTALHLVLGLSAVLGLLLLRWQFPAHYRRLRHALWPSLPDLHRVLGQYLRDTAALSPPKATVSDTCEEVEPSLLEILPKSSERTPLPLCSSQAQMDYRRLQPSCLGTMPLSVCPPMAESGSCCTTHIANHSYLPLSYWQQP
# Test: Thrombopoietic activity: proliferation of TPO dependent BaF/hTPOR cells (WST-1, absorbance at 450 nm)
# Type: cell-based
# Details: 20 h + 4 h WST-1, ED50 = half concentration of the concentration showing the maximum thrombopoietic activity
# Procedure, shortened: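 Proliferation read-out: WST-1 absorbance at 450 nm after 20 h compound exposure plus 4 h reagent, using IL-3-deprived BaF/hTPOR cells (5×10^4 per well) dependent on human TPO receptor signalling. ED50 defined as half the concentration producing maximal activity.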
Structure (SMILES),pEC50 (Table 1),pEC50 (Table 2)
"COc1c(-c2csc(NC(=O)c3cc(Cl)c(/C=C(\C)C(=O)O)c(Cl)c3)n2)cccc1C(CC(C)(C)C)OC (stereo not drawn) [Compound B1054, (E)-3-(2,6-dichloro-4-{4-[2-methyloxy-3-(1-methyloxy-3,3-dimethylbutyl)phenyl]thiazol-2-ylcarbamoyl}phenyl)-2-methylacrylic acid]",7.70,–
"CCCCCCCCCC(OC)c1cccc(-c2csc(NC(=O)c3cc(Cl)c(/C=C(\C)C(=O)O)c(Cl)c3)n2)c1OC (stereo not drawn) [Compound B1059, (E)-3-(2,6-dichloro-4-{4-[2-methyloxy-3-(1-methyloxydecyl)phenyl]thiazol-2-ylcarbamoyl}phenyl)-2-methylacrylic acid]",8.49,–
"CCCCCCCCCCC(OC)c1cccc(-c2csc(NC(=O)c3cc(Cl)c(/C=C(\C)C(=O)O)c(Cl)c3)n2)c1OC (stereo not drawn) [Compound B1060, (E)-3-(2,6-dichloro-4-{4-[2-methyloxy-3-(1-methyloxy-undecyl)phenyl]thiazol-2-ylcarbamoyl}phenyl)-2-methylacrylic acid]",8.41,–
CCCOC(c1cccc(-c2csc(NC(=O)c3cc(Cl)c(/C=C(\C)C(=O)O)c(Cl)c3)n2)c1OC)C1CCCCC1 (stereo not drawn) [Compound B1102],8.54,–
"CCCCOC(C)c1cccc(-c2csc(NC(=O)c3cc(Cl)c(/C=C(\C)C(=O)O)c(Cl)c3)n2)c1OC (stereo not drawn) [Compound B1122, (E)-3-(4-{4-[3-(1-butyloxyethyl)-2-methyloxyphenyl]thiazol-2-ylcarbamoyl}-2,6-dichlorophenyl)-2-methylacrylic acid]",8.08,–
"CCCCOCCCc1cccc(-c2csc(NC(=O)c3cc(Cl)c(/C=C(\C)C(=O)O)c(Cl)c3)n2)c1OC [Compound B1124, (E)-3-(4-{4-[3-(3-butyloxypropyl)-2-methyloxyphenyl]thiazol-2-ylcarbamoyl}-2,6-dichlorophenyl)-2-methylacrylic acid]",7.80,–
"CCCCCCCCCC(OC)c1cccc(-c2csc(NC(=O)c3cc(Cl)c(/C=C(\OC)C(=O)O)c(Cl)c3)n2)c1OC (stereo not drawn) [Compound B1437, (Z)-3-(2,6-dichloro-4-{4-[2-methyloxy-3-(1-methyloxydecyl)phenyl]thiazol-2-ylcarbamoyl}phenyl)-2-methyloxyacrylic acid]",8.19,–
"CCCCCCCCCCC(OC)c1cccc(-c2csc(NC(=O)c3cc(Cl)c(/C=C(\OC)C(=O)O)c(Cl)c3)n2)c1OC (stereo not drawn) [Compound B1438, (Z)-3-(2,6-dichloro-4-{4-[2-methyloxy-3-(1-methyloxyundecyl)phenyl]thiazol-2-ylcarbamoyl}phenyl)-2-methyloxyacrylic acid]",8.20,–
"CCCOCCCC(OC)c1cccc(-c2csc(NC(=O)c3cc(F)c(/C=C(\C)C(=O)O)c(F)c3)n2)c1OC (stereo not drawn) [Compound B1799, (E)-3-(2,6-difluoro-4-{4-[2-methyloxy-3-(1-methyloxy-4-propyloxybutyl)phenyl]thiazol-2-ylcarbamoyl}phenyl)-2-methylacrylic acid]",7.76,–
"COc1c(CCCOCC(C)(C)C)cccc1-c1csc(NC(=O)c2cc(Cl)c(/C=C(\C)C(=O)O)c(Cl)c2)n1 [Compound B1833, (E)-3-[2,6-dichloro-4-(4-{3-[3-(2,2-dimethylpropyloxy)propyl)-2-methyloxyphenyl]thiazol-2-ylcarbamoyl}phenyl)-2-methylacrylic acid]",7.72,–
"CCCCOCCc1cccc(-c2csc(NC(=O)c3cc(Cl)c(/C=C(\C)C(=O)O)c(Cl)c3)n2)c1OC [Compound B1836, (E)-3-(4-{4-[3-(2-butyloxyethyl)-2-methyloxyphenyl]thiazol-2-ylcarbamoyl}-2,6-dichlorophenyl)-2-methylacrylic acid]",–,7.68
"CCC(CC)COCCCc1cccc(-c2csc(NC(=O)c3cc(F)c(/C=C(\C)C(=O)O)c(F)c3)n2)c1OC [Compound B1848, (E)-3-[4-(4-{3-[3-(2-ethylbutyloxy)propyl]-2-methyloxyphenyl}thiazol-2-ylcarbamoyl)-2,6-difluorophenyl]-2-methylacrylic acid]",7.80,–
"CCC(CC)COCCCc1cccc(-c2csc(NC(=O)c3cc(Cl)c(/C=C(\C)C(=O)O)c(Cl)c3)n2)c1OC [Compound B1849, (E)-3-[2,6-dicholoro-4-(4-{3-[3-(2-ethylbutyloxy)propyl]-2-methyloxyphenyl}thiazol-2-ylcarbamoyl)phenyl]-2-methylacrylic acid]",–,7.65
"COc1c(CCCOCCC(C)C)cccc1-c1csc(NC(=O)c2cc(F)c(/C=C(\C)C(=O)O)c(F)c2)n1 [Compound B1851, (E)-3-[2,6-difluoro-4-(4-{2-methyloxy-3-[3-(3-methylbutyloxy)propyl]phenyl}thiazol-2-ylcarbamoyl)phenyl]-2-methylacrylic acid]",7.77,–
"COc1c(CCCOCCC(C)C)cccc1-c1csc(NC(=O)c2cc(Cl)c(/C=C(\C)C(=O)O)c(Cl)c2)n1 [Compound B1852, (E)-3-[2,6-dichloro-4-(4-{2-methyloxy-3-[3-(3-methylbutyloxy)propyl]phenyl}thiazol-2-ylcarbamoyl)phenyl]-2-methylacrylic acid]",7.78,–
"COc1c(CCCOCC2CCC2)cccc1-c1csc(NC(=O)c2cc(F)c(/C=C(\C)C(=O)O)c(F)c2)n1 [Compound B1854, (E)-3-(4-{4-[3-(3-cyclobutylmethyloxypropyl)-2-methyloxyphenyl]thiazol-2-ylcarbamoyl}-2,6-difluorophenyl)-2-methylacrylic acid]",–,7.61
"COc1c(CCCOCC2CCC2)cccc1-c1csc(NC(=O)c2cc(Cl)c(/C=C(\C)C(=O)O)c(Cl)c2)n1 [Compound B1855, (E)-3-(2,6-dichloro-4-{4-[3-(3-cyclobutylmethyloxypropyl)-2-methyloxyphenyl]thiazol-2-ylcarbamoyl}phenyl)-2-methylacrylic acid]",–,7.67
"CCCCCC(OC)c1cccc(-c2nc(NC(=O)c3cc(Cl)c(/C=C(\OC)C(=O)O)c(Cl)c3)sc2OC)c1F (stereo not drawn) [Compound B1861, (Z)-3-(2,6-dichloro-4-{4-[2-fluoro-3-(1-methyloxyhexyl)phenyl]-5-methyoxythiazol-2-ylcarbamoyl}phenyl)-2-methyloxyacrylic acid]",–,7.64
"CCCOCCCc1cccc(-c2nc(NC(=O)c3cc(Cl)c(/C=C(\C)C(=O)O)c(Cl)c3)sc2OC)c1 [Compound B1863, (E)-3-(2,6-dichloro-4-{5-methyloxy-4-[3-(3-propyloxypropyl)phenyl]thiazol-2-ylcarbamoyl}phenyl)-2-methylacrylic acid]",–,7.64
"COc1c(CCCOCC(C)C)cccc1-c1csc(NC(=O)c2cc(F)c(/C=C(\C)C(=O)O)c(F)c2)n1 [Compound B1877, (E)-3-(2,6-difluoro-4-{4-[3-(3-isobuyloxypropyl)-2-methyloxyphenyl]thiazol-2-ylcarbamoyl}phenyl)-2-methylacrylic acid]",7.88,–
"COc1c(CCCOCC(C)C)cccc1-c1csc(NC(=O)c2cc(Cl)c(/C=C(\C)C(=O)O)c(Cl)c2)n1 [Compound B1878, (E)-3-(2,6-dichloro-4-{4-[3-(3-isobuyloxypropyl)-2-methyloxyphenyl]thiazol-2-ylcarbamoyl}phenyl)-2-methylacrylic acid]",–,7.67
CCCCCOCc1cccc(-c2csc(NC(=O)c3cc(F)c(/C=C(\C)C(=O)O)c(F)c3)n2)c1OC [Compound B1884],7.77,–
CCCCCOCc1cccc(-c2csc(NC(=O)c3cc(Cl)c(/C=C(\C)C(=O)O)c(Cl)c3)n2)c1OC [Compound B1886],–,7.66
"CCC(CC)OCc1cccc(-c2csc(NC(=O)c3cc(F)c(/C=C(\C)C(=O)O)c(F)c3)n2)c1OC [Compound B1890, (E)-3-(4-{4-[3-(1-ethylpropyloxymethyl)-2-methyloxyphenyl]thiazol-2-ylcarbamoyl}-2,6-difluorophenyl)-2-methylacrylic acid]",7.74,–
"CCC(CC)OCc1cccc(-c2csc(NC(=O)c3cc(Cl)c(/C=C(\C)C(=O)O)c(Cl)c3)n2)c1OC [Compound B1892, (E)-3-(2,6-dichloro-4-{4-[3-(1-ethylpropyloxymethyl)-2-methyloxyphenyl]thiazol-2-ylcarbamoyl}phenyl)-2-methylacrylic acid]",7.93,–
"CO/C(=C\c1c(F)cc(C(=O)Nc2nc(-c3cccc(CCCOCC(C)(C)C)c3)c(OC)s2)cc1F)C(=O)O [Compound B1900, (Z)-3-[4-(4-{3-[3-(2,2-dimethylpropyloxy)propyl]phenyl}-5-methyloxythiazol-2-ylcarbamoyl)-2,6-difluorophenyl]-2-methyloxyacrylic acid]",–,7.64
"CO/C(=C\c1c(Cl)cc(C(=O)Nc2nc(-c3cccc(CCCOCC(C)(C)C)c3)c(OC)s2)cc1Cl)C(=O)O [Compound B1901, (Z)-3-[2,6-dichloro-4-(4-{3-[3-(2,2-dimethylpropyloxy)propyl]phenyl}-5-methyloxythiazol-2-ylcarbamoyl)phenyl]-2-methyloxyacrylic acid]",–,7.62
